# Source: patent publication US7927624B2, “Hydrophilic/lipophilic polymeric matrix dosage formulation” (Jagotec AG, priority 2000, dated 2011)
# Experiment: physchem
# Details: water
smiles,measurement,value
"CCCN(CCC)CCc1cccc2c1CC(=O)N2 [ropinirole, Ropinirole]",solubility,133 mg/mL
